From patent US20240246963A1, “BIFUNCTIONAL COMPOUNDS AND PHARMACEUTICAL USES THEREOF” (RISEN (SUZHOU) PHARMA TECH CO., LTD., priority 2022, published 2024)

How the values were obtained:
Assay type in all cases: cell-based
GP2D cells (G12D) = assay: Cell proliferation study (Cell Titer Glo, 72 hours), GP2D
Procedure: (§1) Aspc-1(Cobioer, CBP60546), GP2D(Cobioer, CBP60683), Mia paca2 (Cobioer, CBP60136), NCI-H358 (Cobioer, CBP60544), H727 (Cobioer, CBP60182), MKN-1 (Cobioer, CBP60486), and PSN1 (Cobioer, CBP61215) cells in exponential growth phase were seeded into a 96-well plate (Greiner, 655090) at density of 3E3/well. Cells were cultured overnight at 37° C. with 5% CO2. On the next day, cells were treated with compound at various concentrations for 72 hours in 37° C., 5% CO2 incubator (final DMSO concentration was 0.1%). After treatment, 100 μL Cell Tier Glo (Promega, G7573) were added to every well on the cell plate and incubated at room temperature (RT) for 10 minutes. Cell growth status was measured with Cell Tier Glo (Promega, G7573) following manufacturer's directions. Inhibition level was calculated according to the following formula: […]
(§2) where the “Maximum Signal” are signal of wells containing DMSO without compound; the “Minimum Signal” are signal of wells recorded at Day 0 prior to commencement of the experiment; and the “Test compound signal” are signal of wells containing compound at established concentrations.
(§3) The inhibition curve was obtained with GraphPad 7.0 software using four-parameter equation.

RAS G12D protein = target: T1, RAS G12D protein (Homo sapiens, UniProt P01116, G12D); assay: Protein degradation study (western blot) in Aspc-1 cells; conditions: for percent protein degradation at 0.005 µM / percent protein degradation at 0.05 µM: ASPC1, 24 h, Aspc-1 cells, 24 hours, read-out: Rate of protein degradation (%); for percent protein degradation at 0.005 µM: 0.005 μM compound; for percent protein degradation at 0.05 µM: 0.05 μM compound; for Dmax: ASPC1, G12D in Aspc-1 cells; for DC50: half-maximum degradation concentration on G12D in Aspc-1 cells
T1 construct: host or cells: Aspc-1 (AsPC-1) cells
T1 sequence (P01116 1-188 isoform P01116-2 G12D): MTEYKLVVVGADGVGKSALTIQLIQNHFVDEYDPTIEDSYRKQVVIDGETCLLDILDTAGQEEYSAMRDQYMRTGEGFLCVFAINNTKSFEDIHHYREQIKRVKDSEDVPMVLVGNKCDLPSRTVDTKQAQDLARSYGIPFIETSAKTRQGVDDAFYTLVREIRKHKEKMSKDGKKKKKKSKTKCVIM
Procedure: Aspc-1 (Cobioer, CBP60546) cells in exponential growth phase were inoculated on a 6-well cell culture plate (Corning, 3516) at density of 1E6/well; and cells in the plate were cultured in a 37° C. incubator containing 5%-carbon dioxide. The next day, test compounds were dissolved in DMSO (Sigma, RNBF5902) for the preparation of a 10-mM concentration stock solution. The stock solution was diluted with complete medium (RPMI-1640 supplemented with 10% fetal bovine serum, 1% penicillin-streptomycin), yielding working solutions of various concentrations. The plate, after the addition of compounds, was placed in a 5% carbon dioxide incubator, and incubated at 37° C. for 24 hours (final DMSO concentration was 0.1%). The plate was then removed from the incubator, and the cells were washed twice with precooled PBS (Gibco, 14190250), followed by addition of 80 μL RIPA (CST, 9806S) lysis buffer (containing protease inhibitor (Invitrogen™, AM2696)) to each well. The adherent cells were scraped off with a cell scraper, and the cell lysate was transferred to a 1.5 mL centrifuge tube followed with a 30-minute incubation on ice. The lysate was then clarified with centrifugation at 12000 rpm for 10 min at 4° C. The supernatant was transferred into a new 1.5 mL centrifuge tube, and protein concentration was measured with BCA protein detection kit (Thermo Fisher, 23225). G12D protein level was assessed by western blot. A mixture of cell lysate (40 μL) and loading buffer (10 μL, 5×SDS (Beyotime, P0015L)) was denatured in a water-bath at 95° C. for 10 min. The denatured protein sample, at 30 μg/well, was loaded into a corresponding well of a 4-20% Bis-Tris gel (Kingsley, M00656). Protein samples were initially electrophoresed at 80 V for 30 minutes, followed by 120 V for 40 minutes, until the bromophenol blue strip ran to an appropriate position. After electrophoresis, iBlot2 (Life Technologies, IB21001) was used to transfer the separated samples onto PVDF film. The PVDF membrane was washed with double-distilled water and then blocked in TBST (Thermo Scientific, 28360) buffer containing 5% non-fat milk, for 2 hours. Blocked membrane was rinsed with tris-buffered saline tween-2 (Thermo Scientific, 28360, TBST) three times, 10 minutes each. Membrane was then incubated with 1:1000 diluted RAS Gi2D primary antibody (CST, cat #14429S) overnight at 4° C. Membrane was rinsed in a way described previously followed by 1 hour incubation of secondary antibody at room temperature. After washing the film for three times with TBST, ECL color developing solution was applied, and image was captured with Biorad Chemi Doc gel imager. The band gray value was quantified (Image Lab), and protein degradation level was calculated according to the following formulas:
Level of RAS G12D protein expression=(RAS G12D−compound/β-Actin)−compound/(RAS G12D−DMSO/β-Actin−DMSO)
Level of degradation (%)=(1−Rate of RAS G12D protein expression)×100
Symbols of −, +, ++, +++, ++++, +++++ indicate that the degradation level of Ras protein induced by test compounds was 10% or less, 10 to 30%, 30 to 60%, 60 to 70%, 70 to 75%, and greater than 75%, respectively. “NT” indicates not tested.
“NT” indicates not tested.

AsPc-1 cells (G12D) = assay: Cell proliferation study (Cell Titer Glo, 72 hours), AsPc-1; conditions: Homo sapiens, ASPC1
Procedure: as §1, §2, §3

NCI-H358 cells (G12C) = assay: Cell proliferation study (Cell Titer Glo, 72 hours), NCI-H358; conditions: Homo sapiens
Procedure: as §1, §2, §3

NCI-H727 cells (G12V) = assay: Cell proliferation study (Cell Titer Glo, 72 hours), NCI-H727; conditions: Homo sapiens
Procedure: as §1, §2, §3

Row | SMILES | IC50 (GP2D cells (G12D)) | percent protein degradation at 0.005 µM (RAS G12D protein) | percent protein degradation at 0.05 µM (RAS G12D protein) | IC50 (AsPc-1 cells (G12D)) | Dmax (RAS G12D protein) | DC50 (RAS G12D protein) | IC50 (NCI-H358 cells (G12C)) | IC50 (NCI-H727 cells (G12V))
1 | CCc1c(F)ccc2cc(O)cc(-c3ncc4c(N5CCC[C@]6(CCO6)C5)nc(OCC5(CN6CC(C(=O)N7CCC(c8ccc9c(C%10CCC(=O)NC%10=O)nn(C)c9c8)CC7)C6)CC5)nc4c3F)c12 (stereo partly shown) [Compound 207] | 3.53 nM | 30 to 60% | 60 to 70% | 198 nM | – | – | – | –
2 | CCc1c(F)ccc2cc(O)cc(-c3ncc4c(N5CCC[C@]6(CCO6)C5)nc(OCC5(CN6CCC7(CC6)CC(N6CCC(c8ccc9c(=O)n(C%10CCC(=O)NC%10=O)ccc9c8)CC6)C7)CC5)nc4c3F)c12 (stereo partly shown) [Compound 234] | – | 30 to 60% | 70 to 75% | 43.2 nM | 65% | 11 to 50 nM | 17.9 nM | 4.4 nM
3 | CCc1c(F)ccc2cc(O)cc(-c3ncc4c(N5CCC[C@@](C)(O)C5)nc(OCC5(CN6CCC7(CC6)CC(N6CCC(c8cc9c(cc8F)c(N8CCC(=O)NC8=O)nn9C)CC6)C7)CC5)nc4c3F)c12 [Compound 235] | – | 30 to 60% | > 75% | 63.5 nM | 71% | 1 to 10 nM | 10.3 nM | 0.8 nM
4 | CCc1c(F)ccc2cc(O)cc(-c3ncc4c(N5CCC[C@]6(CCO6)C5)nc(OCC5(CN6CCC(CN7Cc8cc9c(cc8C7)C(=O)N(C7CCC(=O)NC7=O)C9=O)CC6)CC5)nc4c3F)c12 (stereo partly shown) [Compound 237] | – | 10 to 30% | 10 to 30% | – | – | – | – | –
5 | CCc1cccc2cc(O)cc(-c3ncc4c(N5CCC[C@]6(CCO6)C5)nc(OCC5(CN6CCC7(CC6)CC(N6CCC(c8cc9c(cc8F)c(N8CCC(=O)NC8=O)nn9C)CC6)C7)CC5)nc4c3F)c12 [Compound 238] | – | > 75% | 30 to 60% | – | 73% | 11 to 50 nM | – | –
6 | Cn1nc(N2CCC(=O)NC2=O)c2cc(F)c(C3CCN(C4CC5(CCN(CC6(COc7nc(N8CCC[C@]9(CCO9)C8)c8cnc(-c9cc(O)cc%10ccc(F)c(F)c9%10)c(F)c8n7)CC6)CC5)C4)CC3)cc21 [Compound 241] | – | 60 to 70% | 30 to 60% | – | 71% | 11 to 50 nM | – | –
7 | CCc1c(F)ccc2cc(O)cc(-c3ncc4c(N5CCC[C@@](C)(O)C5)nc(OCC5(CN6CCC7(CC6)CC(N6CCC(c8cc9c(cc8F)c(N8CCC(=O)NC8=O)nn9C)C(F)(F)C6)C7)CC5)nc4c3F)c12 (stereo partly shown) [Compound 243] | – | 30 to 60% | > 75% | – | 74% | 1 to 10 nM | – | –
8 | CCc1c(F)ccc2cc(O)cc(-c3ncc4c(N5CCC[C@]6(CCO6)C5)nc(OCC5(CN6CCC(CN7CCC(c8ccc9ccn(C%10CCC(=O)NC%10=O)c(=O)c9c8)CC7)CC6)CC5)nc4c3F)c12 (stereo partly shown) [Compound 244] | – | 30 to 60% | 30 to 60% | – | – | – | – | –
